According to article PMC9601806, “Calcium Binding Mechanism of Soybean Peptide with Histidine Alteration by Molecular Docking Analysis and Spectroscopic Methods” (Foods, 2022):
Residues, ends and D or L forms follow the SMILES beside them.

Tests used:
[1] = Simulated gastrointestinal digestion and Caco-2 absorption, LC-MS/MS identification; format: in vitro ADME; conditions: pepsin pH 2, 37 °C, 90 min, then trypsin and bile salts pH 7.5, Caco-2 absorption 0.1 mg/mL, 2 h
Description: The simulation of gastrointestinal digestion was carried out following the method described before with some modifications. The gastric set was reproduced by the suspension of porcine pepsin (40 mg) into 1 mL 0.1N HCl. The intestinal stage was stimulated by adding bile salts (40 mg) and trypsin (10 mg) into 5 mL of 0.1 mol/L NaHCO3. Gastric digestion was performed by incubating the CBP–calcium complex or CaCl2 (prepared with equal Ca^2+ concentration, pH = 2) at a pepsin/substrate ratio of 1:100 (w/w) in a water bath shaker (37 °C, 90 min). […], the […] at 1:25 (w/w) of substrates was added, following by adjusting the pH to 7.5. After that, samples were removed after deactivating trypsin by thermal denaturation for 5 min. Then, the obtained samples were lyophilized and stored at −20 °C for the sake of subsequent studies.
The human intestinal Caco-2 cell line has been extensively used as an intestinal barrier model. These cells were cultured in high-glucose Dulbecco’s Eagle’s medium (DMEM), which contained 10% fetal bovine serum (FBS), 100 μg mL^−1 streptomycin, and 100 U mL^−1 penicillin, and were incubated at 37 °C in a humidified 5% CO2 incubator. Transepithelial transport through the Caco-2 single cell layer was performed in accordance with Wang et al.’s method. […]

[2] = cited from earlier work
Description: To clarify the calcium-binding capacity of CBP-H, Nanjing Peptide Biotechnology Corporation. Ltd. (Nanjing, China) synthesized the peptide CBP-H using a solid-phase procedure. High performance liquid chromatography (HPLC) analysis was performed to determine the purity (98%) of CBP-H (Figure S1A), and ESI mass spectrometry was used to confirm the peptide structure. […] In addition, the CBP-H–Ca complex was prepared, followed by ICP-AES to detect the calcium-binding capacity. […] Spectroscopic methods were used to analyze the binding mode and binding sites including ITC, UV, FTIR, and XRD. Isothermal titration calorimetry was always used to measure reversible reactions between bio-molecules. This methodology provided the affinity constant, stoichiometry, enthalpy, and entropy of the biomolecular interactions.

Row | stability after simulated gastrointestinal digestion [1] | Molecule | further results
1 | partially stable | CC[C@H](C)[C@H](NC(=O)[C@H](CCC(N)=O)NC(=O)[C@H](CCC(=O)O)NC(=O)[C@H](CC(=O)O)NC(=O)[C@H](CCC(=O)O)NC(=O)[C@@H](N)CC(=O)O)C(=O)N1CCC[C@H]1C(=O)N[C@@H](CO)C(=O)N[C@@H](Cc1c[nH]cn1)C(=O)N1CCC[C@H]1C(=O)N1CCC[C@H]1C(=O)N[C@@H](CCCNC(=N)N)C(=O)O [CBP, Asp-Glu-Asp-Glu-Gln-IIe-Pro-Ser-His-Pro-Pro-Arg] (H-DEDEQIPSHPPR-OH) | –
2 | partially stable | CC[C@H](C)[C@H](NC(=O)[C@H](CCC(N)=O)NC(=O)[C@H](CCC(=O)O)NC(=O)[C@H](CC(=O)O)NC(=O)[C@H](CCC(=O)O)NC(=O)[C@@H](N)CC(=O)O)C(=O)N1CCC[C@H]1C(=O)N[C@@H](CO)C(=O)N[C@@H](CC(C)C)C(=O)N1CCC[C@H]1C(=O)N1CCC[C@H]1C(=O)N[C@@H](CCCNC(=N)N)C(=O)O [CBP-H, Asp-Glu-Asp-Glu-Gln-IIe-Pro-Ser-Leu-Pro-Pro-Arg] (H-DEDEQIPSLPPR-OH) | –
3 | – | GPAGPHGPVG [tilapia bone collagen peptide, literature comparison] | calcium-binding capacity ([2]; tilapia bone collagen peptide): 18.80 ± 0.49 mg/g
4 | – | Thr-Cys-His | calcium binding capacity ([2]; peptide from shrimp protein hydrolysates): 2.7 mmol/g
